Test results reported in patent publication US9963448B2, “Bicyclic inhibitors of PAD4” (Padlock Therapeutics, Inc., priority 2015, dated 2018).
Like-named read-outs stand apart in the source and are kept apart here.

Assays:
[1] = molecular target: hPAD4 (Homo sapiens, UniProt Q9UM07); test: hPAD4 RFMS (RapidFire mass spectrometry) PAD4 inhibition assay; type: biochemical; details: hPAD4 enzyme, RFMS readout;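 on hPAD4 RFMS pIC50: grade E means pIC50 at most 4 and F means pIC50 4.0 to 5.0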
Description: (§1) Compounds of the present invention were assayed as inhibitors of PAD4 using the assay protocol described below.
(§2) Compound stock solutions were stored at RT. […] Final assay conditions were as follows:
(§3) Total incubation time: 65 mins at 37° C.
(§4) Stop solution: 40 μl 5% TCA in ACN
(§5) The compound numbers correspond to the compound numbers in Table 1. […] The term pIC50=−log(IC50). […] “NA” stands for “not assayed.”

[2] = molecular target: mPAD4 (Mus musculus, UniProt Q9Z183); test: mPAD4 RFMS PAD4 inhibition assay; type: biochemical; details: mPAD4, RFMS readout;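 on mPAD4 RFMS pIC50: grade E means pIC50 at most 4 and F means pIC50 4.0 to 5.0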
Chain of mPAD4 (Q9Z183 whole entry): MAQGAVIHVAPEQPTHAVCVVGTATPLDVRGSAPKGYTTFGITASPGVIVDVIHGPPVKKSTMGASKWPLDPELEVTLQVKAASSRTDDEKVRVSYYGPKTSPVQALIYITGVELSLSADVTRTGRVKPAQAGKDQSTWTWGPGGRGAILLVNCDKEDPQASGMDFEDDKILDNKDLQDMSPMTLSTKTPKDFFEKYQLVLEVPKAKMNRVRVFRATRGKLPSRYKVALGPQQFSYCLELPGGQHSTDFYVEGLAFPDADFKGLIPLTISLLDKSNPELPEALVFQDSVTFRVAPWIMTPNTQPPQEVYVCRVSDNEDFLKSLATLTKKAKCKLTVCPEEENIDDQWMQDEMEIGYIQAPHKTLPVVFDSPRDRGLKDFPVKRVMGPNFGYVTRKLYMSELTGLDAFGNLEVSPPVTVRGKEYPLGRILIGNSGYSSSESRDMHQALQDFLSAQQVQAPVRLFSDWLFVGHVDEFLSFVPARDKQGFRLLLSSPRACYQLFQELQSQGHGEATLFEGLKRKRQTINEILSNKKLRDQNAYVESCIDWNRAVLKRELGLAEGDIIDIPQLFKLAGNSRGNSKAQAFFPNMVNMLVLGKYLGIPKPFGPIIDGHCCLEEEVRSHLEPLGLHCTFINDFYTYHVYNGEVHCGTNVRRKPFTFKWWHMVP
Description: as §1, §2, §3, §4, §5

[3] = pIC50=−log(IC50), read-out: hPAD4 RFMS pIC50 (converted)
[4] = pIC50=−log(IC50), read-out: mPAD4 RFMS pIC50 (converted)

Chain of hPAD4 (Q9UM07 whole entry): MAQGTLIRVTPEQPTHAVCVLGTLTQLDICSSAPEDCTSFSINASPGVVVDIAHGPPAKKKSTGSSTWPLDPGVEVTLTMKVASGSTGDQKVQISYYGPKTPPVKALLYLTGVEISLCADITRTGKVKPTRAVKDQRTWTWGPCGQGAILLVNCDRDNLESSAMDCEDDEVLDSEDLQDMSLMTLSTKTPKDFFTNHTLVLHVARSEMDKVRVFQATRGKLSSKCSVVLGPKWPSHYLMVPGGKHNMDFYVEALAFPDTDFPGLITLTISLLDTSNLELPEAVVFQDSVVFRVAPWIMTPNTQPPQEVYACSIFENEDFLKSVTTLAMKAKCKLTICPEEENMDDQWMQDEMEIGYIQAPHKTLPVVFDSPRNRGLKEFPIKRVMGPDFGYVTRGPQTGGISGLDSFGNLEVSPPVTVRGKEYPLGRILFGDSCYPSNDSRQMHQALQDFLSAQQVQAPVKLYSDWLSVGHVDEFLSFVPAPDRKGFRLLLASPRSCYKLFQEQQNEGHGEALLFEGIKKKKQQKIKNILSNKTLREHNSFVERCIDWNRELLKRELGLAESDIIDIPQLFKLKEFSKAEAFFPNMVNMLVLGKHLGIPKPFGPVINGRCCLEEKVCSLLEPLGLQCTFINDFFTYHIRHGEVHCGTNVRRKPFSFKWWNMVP

Molecule CCn1c(-c2nc3cc(C(=O)N4CCC[C@@H](N)C4)cc(OC)c3n2C)cc2ccc(OC(F)F)nc21 [Compound I-201] has an IC50 [1, 3] of under 1 µM, an IC50 ([1]; read-out: hPAD4 RFMS IC50) of under 1 µM and an IC50 [2, 4] of under 1 µM. For the same molecule, the IC50 ([2]; read-out: mPAD4 RFMS IC50) was under 1 µM.

Molecule COc1cc(C(=O)N2C[C@H]3CC[C@@H]2[C@@H]3N)cc2nc(-c3cc4cnc(C)nc4n3CC3CC3)n(C)c12 [Compound I-202, (1R,4R,7R)-2-{2-[7-(Cyclopropylmethyl)-2-methyl-7H-pyrrolo[2,3-d]pyrimidin-6-yl]-7-methoxy-1-methyl-1H-1,3-benzodiazole-5-carbonyl}-2-azabicyclo[2.2.1]heptan-7-amine] has an IC50 [1, 3] of under 1 µM, an IC50 ([1]; read-out: hPAD4 RFMS IC50) of under 1 µM and an IC50 [2, 4] of 1 to 10 µM. It also gave an IC50 ([2]; read-out: mPAD4 RFMS IC50) of 1 to 5 µM.

With COc1cc(C(=O)N2CCC[C@@H](N)C2)cc2nc(-c3cc4cnc(C)nc4n3CC3CC3)n(C)c12 [Compound I-203] the IC50 [1, 3] was under 1 µM, the IC50 ([1]; read-out: hPAD4 RFMS IC50) was under 1 µM and the IC50 [2, 4] was 1 to 10 µM. It also gave an IC50 ([2]; read-out: mPAD4 RFMS IC50) of 1 to 5 µM.

For CCn1c(-c2nc3cc(C(=O)N4CCC[C@@H](N)C4)cc(OC)c3n2C[C@H]2C[C@@](C)(OC)C2)cc2ccc(OC)nc21 [Compound I-204], the IC50 [1, 3] was under 1 µM, the IC50 ([1]; read-out: hPAD4 RFMS IC50) was under 1 µM and the IC50 [2, 4] was under 1 µM. It also gave an IC50 ([2]; read-out: mPAD4 RFMS IC50) of under 1 µM.

CCn1c(-c2nc3cc(C(=O)N4C[C@H](N)C[C@@H](F)C4)cc(OC)c3n2C[C@H]2C[C@@](C)(OC)C2)cc2ccc(OC)nc21 [Compound I-205] showed an IC50 [1, 3] of under 1 µM, an IC50 ([1]; read-out: hPAD4 RFMS IC50) of under 1 µM and an IC50 [2, 4] of under 1 µM. The IC50 ([2]; read-out: mPAD4 RFMS IC50) was under 1 µM.

CCn1c(-c2nc3cc(C(=O)N4C[C@H]5CC[C@@H]4[C@@H]5N)cc(OC)c3n2C[C@H]2C[C@@](C)(OC)C2)cc2ccc(OC)nc21 [Compound I-206] gave an IC50 [1, 3] of under 1 µM, an IC50 ([1]; read-out: hPAD4 RFMS IC50) of under 1 µM and an IC50 [2, 4] of under 1 µM. The IC50 ([2]; read-out: mPAD4 RFMS IC50) was under 1 µM.

In the case of CCn1c(-c2nc3cc(C(=O)N4C[C@H]5CC[C@@H]4[C@@H]5N)cc(OC)c3n2[C@H]2C[C@H](OC)C2)cc2cccnc21 [Compound I-207], the IC50 [1, 3] is reported as 1 to 10 µM, the IC50 ([1]; read-out: hPAD4 RFMS IC50) is reported as 5 to 10 µM and the IC50 [2, 4] is reported as 1 to 10 µM. The IC50 ([2]; read-out: mPAD4 RFMS IC50) was 1 to 5 µM.

With COc1cc(C(=O)N2C[C@H](N)C[C@@H](F)C2)cc2nc(-c3cc4ccc(C(F)(F)F)nc4n3CC3CC3)n(C)c12 [Compound I-208] the IC50 [1, 3] was under 1 µM, the IC50 ([1]; read-out: hPAD4 RFMS IC50) was under 1 µM and the IC50 [2, 4] was under 1 µM. It also gave an IC50 ([2]; read-out: mPAD4 RFMS IC50) of under 1 µM.

Molecule COc1cc(C(=O)N2C[C@H](N)C[C@@H](F)C2)cc2nc(-c3cc4cccnc4n3CC3CC3)n(C[C@H]3C[C@@](C)(OC)C3)c12 [Compound I-209] has an IC50 [1, 3] of under 1 µM, an IC50 ([1]; read-out: hPAD4 RFMS IC50) of under 1 µM and an IC50 [2, 4] of under 1 µM. It also gave an IC50 ([2]; read-out: mPAD4 RFMS IC50) of under 1 µM.

With COc1cc(C(=O)N2C[C@H]3CC[C@@H]2[C@@H]3N)cc2nc(-c3cc4ccc(C(C)(C)O)nc4n3CC3CC3)n(C)c12 [Compound I-210, 2-(2-{5-[(1R,4R,7R)-7-Amino-2-azabicyclo[2.2.1]heptane-2-carbonyl]-7-methoxy-1-methyl-1H-1,3-benzodiazol-2-yl}-1-(cyclopropylmethyl)-1H-pyrrolo[2,3-b]pyridin-6-yl)propan-2-ol] the IC50 [1, 3] was under 1 µM, the IC50 ([1]; read-out: hPAD4 RFMS IC50) was under 1 µM and the IC50 [2, 4] was under 1 µM. For the same molecule, the IC50 ([2]; read-out: mPAD4 RFMS IC50) was under 1 µM.

With COc1cc(C(=O)N2CCC[C@@H](N)C2)cc2nc(-c3cc4ccc(C(C)(C)O)nc4n3CC3CC3)n(C)c12 [Compound I-211] the IC50 [1, 3] was under 1 µM, the IC50 ([1]; read-out: hPAD4 RFMS IC50) was under 1 µM and the IC50 [2, 4] was under 1 µM. For the same molecule, the IC50 ([2]; read-out: mPAD4 RFMS IC50) was under 1 µM.

COc1cc(C(=O)N2C[C@@H]3CC[C@H]2[C@@H](N)C3)cc2nc(-c3cc4cccnc4n3CC3CC3)n(C)c12 [Compound I-212] gave an IC50 [1, 3] of 10 to 100 µM, an IC50 ([1]; read-out: hPAD4 RFMS IC50) of over 10 µM and an IC50 [2, 4] of 10 to 100 µM. The IC50 ([2]; read-out: mPAD4 RFMS IC50) was over 10 µM.

COc1cc(C(=O)N2C[C@H]3CC[C@@H]2[C@@H]3N)cc2nc(-c3cc4cccnc4n3CC3CC3)n(CC[S+](C)[O-])c12 (stereo partly drawn) [Compound I-213, (1R,4R,7R)-2-{2-[1-(Cyclopropylmethyl)-1H-pyrrolo[2,3-b]pyridin-2-yl]-1-(2-methanesulfinylethyl)-7-methoxy-1H-1,3-benzodiazole-5-carbonyl}-2-azabicyclo[2.2.1]heptan-7-amine] gave an IC50 [1, 3] of under 1 µM, an IC50 ([1]; read-out: hPAD4 RFMS IC50) of under 1 µM and an IC50 [2, 4] of under 1 µM. It also gave an IC50 ([2]; read-out: mPAD4 RFMS IC50) of under 1 µM.

With COc1cc(C(=O)N2C[C@H]3CC[C@@H]2[C@@H]3N)cc2nc(-c3cc4cccnc4n3CC3CC3)n(CCS(C)(=O)=O)c12 [Compound I-214, (1R,4R,7R)-2-{2-[1-(cyclopropylmethyl)-1H-pyrrolo[2,3-b]pyridin-2-yl]-1-(2-methanesulfonylethyl)-7-methoxy-1H-1,3-benzodiazole-5-carbonyl}-2-azabicyclo[2.2.1]heptan-7-amine] the IC50 [1, 3] was under 1 µM, the IC50 ([1]; read-out: hPAD4 RFMS IC50) was under 1 µM and the IC50 [2, 4] was 1 to 10 µM. It also gave an IC50 ([2]; read-out: mPAD4 RFMS IC50) of 1 to 5 µM.

With COc1cc(C(=O)N2C[C@@H]3CC[C@H]2[C@H](N)C3)cc2nc(-c3cc4cccnc4n3CC3CC3)n(C)c12 [Compound I-215] the “hPAD4 RFMS pIC50” value ([1]; pIC50=−log(IC50)) was “E/F”, the IC50 ([1]; read-out: hPAD4 RFMS IC50) was over 10 µM and the “mPAD4 RFMS pIC50” value ([2]; pIC50=−log(IC50)) was “E/F”. It also gave an IC50 ([2]; read-out: mPAD4 RFMS IC50) of over 10 µM.

COc1cc(C(=O)N2C[C@H]3CC[C@@H]2[C@@H](N)C3)cc2nc(-c3cc4cccnc4n3CC3CC3)n(C)c12 [Compound I-216] showed an IC50 [1, 3] of 10 to 100 µM, an IC50 ([1]; read-out: hPAD4 RFMS IC50) of over 10 µM and an IC50 [2, 4] of 10 to 100 µM. The IC50 ([2]; read-out: mPAD4 RFMS IC50) was over 10 µM.

For COc1cc(C(=O)N2C[C@H]3CC[C@@H]2[C@@H]3N)cc2nc(-c3cc4cccnc4n3CC3CC3)n(CC3CCOC3)c12 (stereo partly shown) [Compound I-217], the IC50 [1, 3] was under 1 µM, the IC50 ([1]; read-out: hPAD4 RFMS IC50) was under 1 µM and the IC50 [2, 4] was under 1 µM. It also gave an IC50 ([2]; read-out: mPAD4 RFMS IC50) of under 1 µM.

For CCn1c(-c2nc3cc(C(=O)N4C[C@H]5CC[C@@H]4[C@@H]5N)cc(OC)c3n2[C@H]2C[C@@H](OC)C2)cc2cccnc21 [Compound I-218], the IC50 [1, 3] was 1 to 10 µM, the IC50 ([1]; read-out: hPAD4 RFMS IC50) was 1 to 5 µM and the IC50 [2, 4] was 1 to 10 µM. It also gave an IC50 ([2]; read-out: mPAD4 RFMS IC50) of 1 to 5 µM.

Work on COc1cc(C(=O)N2C[C@H]3CC[C@@H]2[C@@H]3N)cc2nc(-c3cc4cccnc4n3CC3CC3)n([C@H]3C[C@@H](OC)C3)c12 [Compound I-219] yielded an IC50 [1, 3] of under 1 µM, an IC50 ([1]; read-out: hPAD4 RFMS IC50) of under 1 µM and an IC50 [2, 4] of 1 to 10 µM. It also gave an IC50 ([2]; read-out: mPAD4 RFMS IC50) of 1 to 5 µM.

With COc1cc(C(=O)N2C[C@H]3CC[C@@H]2[C@@H]3N)cc2nc(-c3cc4cc(F)cnc4n3CC3CC3)n(C)c12 [Compound I-222] the IC50 [1, 3] was under 1 µM, the IC50 ([1]; read-out: hPAD4 RFMS IC50) was under 1 µM and the IC50 [2, 4] was under 1 µM. For the same molecule, the IC50 ([2]; read-out: mPAD4 RFMS IC50) was under 1 µM.

CO[C@]1(C)C[C@H](Cn2c(-c3cc4cccnc4n3CC3CC3)nc3cc(C(=O)N4C[C@H]5CC[C@@H]4[C@@H]5N)cc(F)c32)C1 [Compound I-223] gave an IC50 [1, 3] of under 1 µM, an IC50 ([1]; read-out: hPAD4 RFMS IC50) of under 1 µM and an IC50 [2, 4] of under 1 µM. For the same molecule, the IC50 ([2]; read-out: mPAD4 RFMS IC50) was under 1 µM.

COc1cc(C(=O)N2C[C@H]3CC[C@@H]2[C@@H]3N)cc2nc(-c3cc4cccnc4n3CC3CC3)n([C@H]3C[C@H](F)C3)c12 [Compound I-224] showed an IC50 [1, 3] of under 1 µM, an IC50 ([1]; read-out: hPAD4 RFMS IC50) of under 1 µM and an IC50 [2, 4] of under 1 µM. For the same molecule, the IC50 ([2]; read-out: mPAD4 RFMS IC50) was under 1 µM.

COc1cc(C(=O)N2C[C@H]3CC[C@@H]2[C@@H]3N)cc2nc(-c3cc4cccnc4n3CC3CC3)n([C@H]3C[C@@H](F)C3)c12 [Compound I-225] showed an IC50 [1, 3] of under 1 µM, an IC50 ([1]; read-out: hPAD4 RFMS IC50) of under 1 µM and an IC50 [2, 4] of under 1 µM. The IC50 ([2]; read-out: mPAD4 RFMS IC50) was under 1 µM.

For COc1ccc2cc(-c3nc4cc(C(=O)N5C[C@H]6CC[C@@H]5[C@@H]6N)cc(F)c4n3C)n(CC3CC3)c2n1 [Compound I-230], the IC50 [1, 3] was under 1 µM, the IC50 ([1]; read-out: hPAD4 RFMS IC50) was under 1 µM and the IC50 [2, 4] was under 1 µM. It also gave an IC50 ([2]; read-out: mPAD4 RFMS IC50) of under 1 µM.

For COc1cc(C(=O)N2C[C@H]3CC[C@@H]2[C@@H]3N)cc2nc(-c3cc4cccnc4n3CC3CC3)n(C[C@H]3CCOC3)c12 [Compound I-231], the IC50 [1, 3] was under 1 µM, the IC50 ([1]; read-out: hPAD4 RFMS IC50) was under 1 µM and the IC50 [2, 4] was under 1 µM. It also gave an IC50 ([2]; read-out: mPAD4 RFMS IC50) of under 1 µM.
